Columns and labels:
Details in all cases: incubation time: 72 h
MDA-MB-231 [1] = assay: drug sensitivity score (DSS), CellTiter-Glo (DSS (AUC-based score)); higher = stronger drug effect (viability inhibition or cytotoxicity); extreme values may be limits of the assay
Method in brief: (§1)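 Compound was dispensed into 384-well plates at 5 concentrations in 10-fold steps spanning a 10,000-fold range chosen for each compound, and 20 µl of breast cancer cell suspension was added before 72 h of incubation. CellTox Green fluorescence was read at 485/520 nm, followed by CellTiter-Glo luminescence after 10 min at room temperature. Values on each plate were normalised to 0.1 % DMSO and a positive kill control. The drug sensitivity score came from the area under the fitted dose-response curve.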

CAL-120 [2] = assay: as above
Method in brief: as §1

HDQ-P1 [3] = assay: as above
Method in brief: as §1

DU-4475 [4] = assay: as above
Method in brief: as §1

HCC1599 = assay: normalised response (% of control), CellTox Green; higher = less cell death (100 = DMSO, 0 = benzethonium chloride kill control)
Method in brief: (§2)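 Each entry is the normalised signal at a single concentration within a series. The series comprised 5 concentrations in 10-fold steps over a compound-specific 10,000-fold range, placed in 384-well plates into which breast cancer cell lines were seeded as 20 µl suspension and incubated 72 h. CellTox Green (485/520 nm) fluorescence and then CellTiter-Glo luminescence were read, with signals normalised per plate to 0.1 % DMSO (100) and a positive kill control (0).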

CAL-148 = assay: as above
Method in brief: as §2

MDA-MB-231 [5] = assay: as above
Method in brief: as §2

CAL-120 [6] = assay: as above
Method in brief: as §2

MDA-MB-436 = assay: as above
Method in brief: as §2

BT-549 = assay: as above
Method in brief: as §2

MDA-MB-453 = assay: as above
Method in brief: as §2

HDQ-P1 [7] = assay: as above
Method in brief: as §2

HCC1937 = assay: as above
Method in brief: as §2

BT-474 = assay: as above
Method in brief: as §2

HCC1143 = assay: as above
Method in brief: as §2

MDA-MB-468 = assay: as above
Method in brief: as §2

MCF-10A = assay: as above
Method in brief: as §2

CAL-51 = assay: as above
Method in brief: as §2

Hs578T = assay: as above
Method in brief: as §2

CAL-85-1 = assay: as above
Method in brief: as §2

MFM-223 = assay: as above
Method in brief: as §2

DU-4475 [8] = assay: as above
Method in brief: as §2

Structure (SMILES): Cc1ccc(C(=O)N(CCCN)[C@@H](c2oc3cc(Cl)ccc3c(=O)c2Cc2ccccc2)C(C)C)cc1
- drug sensitivity score (MDA-MB-231 [1]): 0
- drug sensitivity score (CAL-120 [2]): 0
- drug sensitivity score (HDQ-P1 [3]): 0
- drug sensitivity score (DU-4475 [4]): 0

Structure (SMILES): O=C(O)c1ccc(-c2c[nH]c3ncc(-c4ccccc4)cc23)cc1C1CCCC1
- drug sensitivity score (MDA-MB-231 [1]): 0
- drug sensitivity score (CAL-120 [2]): 0
- drug sensitivity score (HDQ-P1 [3]): 0
- drug sensitivity score (DU-4475 [4]): 0

Structure (SMILES): NC(=O)Nc1cc(-c2cccc(F)c2)sc1C(=O)N[C@H]1CCCNC1 [AZD7762]
- drug sensitivity score (MDA-MB-231 [1]): 5.67
- drug sensitivity score (CAL-120 [2]): 2.9
- drug sensitivity score (HDQ-P1 [3]): 3.06
- drug sensitivity score (DU-4475 [4]): 0

Structure (SMILES): CO[C@H]1/C=C\C=C(/C)C(=O)NC2=CC(=O)C(NCCN(C)C)=C(C[C@@H](C)C[C@H](OC)[C@H](O)[C@@H](C)/C=C(\C)[C@@H]1OC(N)=O)C2=O [Alvespimycin]
- drug sensitivity score (MDA-MB-231 [1]): 13.3
- drug sensitivity score (CAL-120 [2]): 8.6
- drug sensitivity score (HDQ-P1 [3]): 14
- drug sensitivity score (DU-4475 [4]): 17.6

Structure (SMILES): CO[C@H]1/C=C\C=C(/C)C(=O)NC2=CC(=O)C(NCCN(C)C)=C(C[C@@H](C)C[C@H](OC)[C@H](O)[C@@H](C)/C=C(\C)[C@@H]1OC(N)=O)C2=O [Alvespimycin] (1000 nM)
- normalised response (HCC1599): 104%
- normalised response (CAL-148): 45.8%
- normalised response (MDA-MB-231 [5]): 33%
- normalised response (CAL-120 [6]): 87.5%
- normalised response (MDA-MB-436): 106%
- normalised response (BT-549): 107%
- normalised response (MDA-MB-453): 82.7%
- normalised response (HDQ-P1 [7]): 80%
- normalised response (HCC1937): 34.5%
- normalised response (BT-474): 61.3%
- normalised response (HCC1143): -15.9%
- normalised response (MDA-MB-468): 34.9%
- normalised response (MCF-10A): 23.5%
- normalised response (CAL-51): 69.6%
- normalised response (Hs578T): -33.1%
- normalised response (CAL-85-1): 33.3%
- normalised response (MFM-223): 86.5%
- normalised response (DU-4475 [8]): 79.2%

Structure (SMILES): CCC1(c2ccc(N)cc2)CCC(=O)NC1=O (stereo not drawn) [Aminoglutethimide]
- drug sensitivity score (MDA-MB-231 [1]): 0
- drug sensitivity score (CAL-120 [2]): 0
- drug sensitivity score (HDQ-P1 [3]): 0
- drug sensitivity score (DU-4475 [4]): 0

Structure (SMILES): CCC1(c2ccc(N)cc2)CCC(=O)NC1=O (stereo not drawn) [Aminoglutethimide] (10000 nM)
- normalised response (HCC1599): 101%
- normalised response (CAL-148): 97%
- normalised response (MDA-MB-231 [5]): 112%
- normalised response (CAL-120 [6]): 99.7%
- normalised response (MDA-MB-436): 91.5%
- normalised response (BT-549): 104%
- normalised response (MDA-MB-453): 96.9%
- normalised response (HDQ-P1 [7]): 107%
- normalised response (HCC1937): 110%
- normalised response (BT-474): 90%
- normalised response (HCC1143): 59.1%
- normalised response (MDA-MB-468): 69%
- normalised response (MCF-10A): 102%
- normalised response (CAL-51): 115%
- normalised response (Hs578T): 127%
- normalised response (CAL-85-1): 89.5%
- normalised response (MFM-223): 102%
- normalised response (DU-4475 [8]): 95.9%

Structure (SMILES): Cn1c(CCCC(=O)O)nc2cc(N(CCCl)CCCl)ccc21 [Bendamustine]
- drug sensitivity score (MDA-MB-231 [1]): 0
- drug sensitivity score (CAL-120 [2]): 0
- drug sensitivity score (HDQ-P1 [3]): 0
- drug sensitivity score (DU-4475 [4]): 0

Structure (SMILES): Cn1c(CCCC(=O)O)nc2cc(N(CCCl)CCCl)ccc21 [Bendamustine] (10000 nM)
- normalised response (HCC1599): 111%
- normalised response (CAL-148): 92.6%
- normalised response (CAL-120 [6]): 99.4%
- normalised response (MDA-MB-436): 114%
- normalised response (BT-549): 118%
- normalised response (MDA-MB-453): 101%
- normalised response (HCC1937): 90.7%
- normalised response (BT-474): 101%
- normalised response (HCC1143): 129%
- normalised response (MCF-10A): 95.4%
- normalised response (CAL-51): 115%
- normalised response (CAL-85-1): 84.3%
- normalised response (MFM-223): 96.5%
- normalised response (DU-4475 [8]): 103%

Structure (SMILES): C=C(c1ccc(C(=O)O)cc1)c1cc2c(cc1C)C(C)(C)CCC2(C)C [Bexarotene] (10000 nM)
- normalised response (HCC1599): 108%
- normalised response (CAL-148): 97.9%
- normalised response (MDA-MB-231 [5]): 108%
- normalised response (CAL-120 [6]): 100%
- normalised response (MDA-MB-436): 78.6%
- normalised response (BT-549): 89.8%
- normalised response (MDA-MB-453): 98.4%
- normalised response (HDQ-P1 [7]): 110%
- normalised response (HCC1937): 105%
- normalised response (BT-474): 97.8%
- normalised response (HCC1143): 114%
- normalised response (MDA-MB-468): 121%
- normalised response (MCF-10A): 93.8%
- normalised response (CAL-51): 96.8%
- normalised response (CAL-85-1): 79.7%
- normalised response (MFM-223): 74.1%
- normalised response (DU-4475 [8]): 101%

Structure (SMILES): COc1cc2nccc(Oc3ccc(NC(=O)C4(C(=O)Nc5ccc(F)cc5)CC4)cc3)c2cc1OC [Cabozantinib] (1000 nM)
- normalised response (HCC1599): 94.5%
- normalised response (CAL-148): 96.9%
- normalised response (MDA-MB-231 [5]): 97.1%
- normalised response (CAL-120 [6]): 98.6%
- normalised response (MDA-MB-436): 87.1%
- normalised response (BT-549): 105%
- normalised response (MDA-MB-453): 101%
- normalised response (HDQ-P1 [7]): 65.3%
- normalised response (HCC1937): 102%
- normalised response (BT-474): 98.4%
- normalised response (HCC1143): 108%
- normalised response (MDA-MB-468): 158%
- normalised response (CAL-51): 82.7%
- normalised response (Hs578T): 70.1%
- normalised response (CAL-85-1): 104%
- normalised response (MFM-223): 93.8%
- normalised response (DU-4475 [8]): 96.9%

Structure (SMILES): CN(C)/N=N/c1[nH]cnc1C(N)=O [Dacarbazine] (10000 nM)
- normalised response (HCC1599): 104%
- normalised response (MDA-MB-231 [5]): 101%
- normalised response (CAL-120 [6]): 105%
- normalised response (MDA-MB-436): 91.3%
- normalised response (BT-549): 94.1%
- normalised response (MDA-MB-453): 101%
- normalised response (HDQ-P1 [7]): 111%
- normalised response (BT-474): 95%
- normalised response (HCC1143): 116%
- normalised response (MDA-MB-468): 104%
- normalised response (MCF-10A): 103%
- normalised response (CAL-51): 111%
- normalised response (Hs578T): 126%
- normalised response (CAL-85-1): 81.7%
- normalised response (MFM-223): 96.7%
- normalised response (DU-4475 [8]): 98.9%

Structure (SMILES): Cc1ccc(-n2nc(C(C)(C)C)cc2NC(=O)Nc2ccc(OCCN3CCOCC3)c3ccccc23)cc1 [Doramapimod] (10000 nM)
- normalised response (HCC1599): 99%
- normalised response (CAL-148): 98.2%
- normalised response (CAL-120 [6]): 93.6%
- normalised response (MDA-MB-436): 55.2%
- normalised response (BT-549): 110%
- normalised response (MDA-MB-453): 104%
- normalised response (HDQ-P1 [7]): 96.2%
- normalised response (HCC1937): 79.6%
- normalised response (BT-474): 97.5%
- normalised response (HCC1143): 75.8%
- normalised response (MDA-MB-468): 132%
- normalised response (MCF-10A): 101%
- normalised response (CAL-51): 86.3%
- normalised response (Hs578T): 71.6%
- normalised response (CAL-85-1): 126%
- normalised response (MFM-223): 96.5%
- normalised response (DU-4475 [8]): 100%

Structure (SMILES): C#Cc1cccc(Nc2ncnc3cc(OCCOC)c(OCCOC)cc23)c1 [Erlotinib] (10000 nM)
- normalised response (HCC1599): 104%
- normalised response (CAL-148): 85.1%
- normalised response (CAL-120 [6]): 100%
- normalised response (MDA-MB-436): 102%
- normalised response (BT-549): 95.8%
- normalised response (MDA-MB-453): 95.1%
- normalised response (HDQ-P1 [7]): 79.7%
- normalised response (HCC1937): 81.4%
- normalised response (BT-474): 83.9%
- normalised response (HCC1143): 16.9%
- normalised response (MDA-MB-468): 97.7%
- normalised response (MCF-10A): 104%
- normalised response (CAL-51): 86%
- normalised response (Hs578T): 64.7%
- normalised response (CAL-85-1): 46%
- normalised response (MFM-223): 69.3%
- normalised response (DU-4475 [8]): 101%

— the supplement of paper PMC4862054
